Values quoted from earlier work in patent publication US11058666B2, “Oral administration of melanin for protection against radiation” (priority 2011, dated 2021).

Conditions: after 9 Gy delivered at 1 Gy/min, published data

For `NCCCNCCSP(=O)(O)O` [amifostine], the survival is given as 60%.
